Data reported in the NIST ThermoML archive (doi:10.1021/je7007022).

Experiment: excess molar enthalpy (molar enthalpy of mixing); xn = mol fraction of the nth substance listed
Settings: 303.15 K, 101 kPa, Liquid, Flow calorimetry

O=CO [formic acid] + C1COCCO1
Settings | excess molar enthalpy [kcal/mol]
x2 = 0.056 | -0.0504
x2 = 0.114 | -0.096
x2 = 0.225 | -0.194
x2 = 0.301 | -0.275
x2 = 0.383 | -0.35
x2 = 0.472 | -0.401
x2 = 0.58 | -0.418
x2 = 0.705 | -0.354
x2 = 0.762 | -0.274
x2 = 0.836 | -0.182
x2 = 0.917 | -0.0574
